≈ marks a conversion by molar mass, not a printed value. Where two headings read alike, the source gives them in different places.
Assays:
[1] = tested on: E. coli; assay: Biofilm growth assay (spreading biofilm on semi-solid agar); assay type: cell-based; conditions: for IC85: Escherichia coli, read-out: E. coli
From the text: (§1) "Biofilm Growth Assay" refers to an assay performed on semi-solid agar surface where the bacteria collectively move out from an inoculation point. To those skilled in the art, the act of bacteria collectively moving out from an inoculation point on a semi-solid surface may be referred to as swarming or a spreading biofilm. (Anderson, et al Microbiology, 2003, 149, 37-46; Daniels, et al. FEMS Microbiology Reviews, 2004, 28, 261-289). The procedure to perform this assay is described in detail in the Examples. This type of surface motility by bacteria has been reported in the literature by those skilled in the art.
(§2) The biofilm growth assay was carried out to measure swarming or biofilm spreading on semi-solid agar media in round plates (for example, 100 × 15 mm), also referred to as Petri dishes. For E. coli, the plates contained LB medium with 0.6% agar and 0.5% glucose. P. aeruginosa plates were made with M8 agar supplemented with 0.2% glucose, 100 µM CaCl2, 1 mM MgSO4, and 0.5% Casamino acids. The agar plates of this assay consisted of 0.4% to 0.7% agar (Bacto or Noble agar), although other media may also be used as described in the literature and known to those skilled in the art. Test compounds at the desired concentration were added to the cooled, autoclaved media. Portions of the media were then poured into the plates (20 mL/plate), and the plates allowed to dry at room temperature for approximately 3 to 4 hours. Alternatively, however, plates may be dried in a laminar flow hood for approximately fifteen to twenty minutes. Overnight cultures were grown in a 37°C shaker in LB (E. coli) or TSB (P. aeruginosa). Plates were inoculated by placing 5 µL of the appropriate overnight culture in the centers of the plates. The plates then were incubated overnight at 37°C. The area of the zone of spreading bacteria was then measured and replicates are averaged. Percent inhibition was calculated as 100 × (area without compound - area with compound)/(area without compound). An active compound was considered that which reduces the area of the spreading biofilm compared to negative controls by greater than or equal to 85%. The values shown in Table 1 are the concentrations of compounds (µg/ml) tested in the biofilm growth assay that reduce the area of the spreading biofilm compared to negative controls by greater than or equal to 85% unless noted differently in Table 1. A > ("greater than" symbol) as used in Table 1 is well understood to those skilled in the art as an indication that the listed concentration was not effective at this concentration.
(§3) All of the compounds shown in Tables 2, 3, 4, and 5, below, were prepared semi-synthetically from oleanolic acid, except for Compounds 2 and 3. Compound 2 was prepared from ursolic acid. Compound 3 was prepared from hederagenin, but could also be prepared from an oleanolic acid analog with a hydroxyl at C23 or C24. These compounds were tested in the spreading biofilm assay according to the methods detailed in Example I, above. The values shown in Tables 2, 3, 4, and 5 are the concentrations of compounds tested in the biofilm growth assay that reduce the area of the spreading biofilm compared to negative controls by greater than or equal to 85%. Table 2. Compound 1 and its Analogs and their inhibitory concentrations in the biofilm growth assay as detailed in Example I, above

[2] = tested on: P. aeruginosa; assay: as above; assay type: cell-based; conditions: for IC85: Pseudomonas aeruginosa
From the text: as §1, §2, §3

[3] = Table 2, concentration that reduces the area of the spreading biofilm by >= 85%
[4] = Table 2, concentration that reduces the area of the spreading biofilm by >= 85%, read-out: P. aeruginosa
[5] = Table 1, concentration that reduces the area of the spreading biofilm vs negative controls by >= 85%, > means not effective at this concentration
[6] = Table 1, concentration that reduces the area of the spreading biofilm vs negative controls by >= 85%, > means not effective at this concentration, read-out: P. aeruginosa

| Compound | IC85 [1, 3] | IC85 [2, 4] | further results |
| --- | --- | --- | --- |
| CN(C)c1ccc(C2=C3C4CC(C)(C)CC[C@]4(C(=O)O)CC[C@@]3(C)[C@]3(C)CCC4C(C)(C)c5n[nH]c(N)c5C[C@]4(C)C3C2)cc1 (stereo in doubt) [Compound 10, (4aS,6aS,6bR,13aR)-12-Amino-15-(4-(dimethylamino)phenyl)-2,2,6a,6b,9,9,13a-heptamethyl-2,3,4,4a,5,6,6a,6b,7,8,8a,9,11,13,13a,13b,14,15b-octadecahydro-1H-chryseno[1,2-f]indazole-4a-carboxylic acid] | 1 µg/mL (≈ 1.63 µM) | 0.5 µg/mL (≈ 0.816 µM) |  |
| C=C(C)[C@@H]1CC[C@]2(CO)CC[C@]3(C)[C@H](CC[C@@H]4[C@@]5(C)CC[C@H](O)C(C)(C)[C@@H]5CC[C@]43C)[C@@H]12 [Betulin, reference compound] |  |  | IC85 [1, 5]: > 16 µg/mL; IC85 [2, 6]: 16 µg/mL (≈ 36.1 µM) |
| C=C(C)[C@@H]1CC[C@]2(C(=O)O)CC[C@]3(C)[C@H](CC[C@@H]4[C@@]5(C)CC[C@H](O)C(C)(C)[C@@H]5CC[C@]43C)[C@@H]12 [Betulinic acid, reference compound] |  |  | IC85 [1, 5]: > 16 µg/mL; IC85 [2, 6]: > 16 µg/mL |
| CC1(C)CC[C@]2(C(=O)O)CC[C@]3(C)C(=CCC4[C@@]5(C)Cc6cc[nH]c6C(C)(C)C5CC[C@]43C)C2C1 (stereo partly drawn) [C] |  |  | IC85 [1, 5]: 0.5 µg/mL (≈ 1.05 µM); IC85 [2, 6]: 0.5 µg/mL (≈ 1.05 µM) |
| CC1(C)CC[C@]2(C(=O)O)CC[C@]3(C)C(=CCC4[C@@]5(C)Cc6c(n[nH]c6N)C(C)(C)C5CC[C@]43C)C2C1 (stereo partly drawn) [Compound 2, (4aS,6aS,6bR,13aR)-12-Amino-2,2,6a,6b,9,9,13a-heptamethyl-2,3,4,4a,5,6,6a,6b,7,8,8a,9,11,13,13a,13b,14,15b-octadecahydro-1H-chryseno[1,2-f]indazole-4a-carboxylic acid] |  |  | E. coli [1, 3]: 1 µg/mL; P. aeruginosa [2, 3]: 0.5 µg/mL |
| C[C@@H]1c2n[nH]c(N)c2C[C@]2(C)C3CC=C4[C@@H]5CC(C)(C)CC[C@]5(C(=O)O)CC[C@@]4(C)[C@]3(C)CC[C@@H]12 (stereo partly drawn) [Compound 3, (4aS,6aS,6bR,8aS,9S,13aS,15bS)-12-Amino-2,2,6a,6b,9,13a-hexamethyl-2,3,4,4a,5,6,6a,6b,7,8,8a,9,11,13,13a,13b,14,15b-octadecahydro-1H-chryseno[1,2-f]indazole-4a-carboxylic acid] | 1 µg/mL (≈ 2.08 µM) | 0.5 µg/mL (≈ 1.04 µM) |  |
| CC1=C2[C@@H]3CC(C)(C)CC[C@]3(C(=O)O)CC[C@@]2(C)[C@]2(C)CC[C@H]3C(C)(C)c4n[nH]c(N)c4C[C@]3(C)C2C1 (stereo partly drawn) [Compound 4, (4aS,6aS,6bR,8aR,13aR,15bS)-12-Amino-2,2,6a,6b,9,9,13a,15-octamethyl-2,3,4,4a,5,6,6a,6b,7,8,8a,9,11,13,13a,13b,14,15b-octadecahydro-1H-chryseno[1,2-f]indazole-4a-carboxylic acid] | 1 µg/mL (≈ 1.97 µM) | 0.25 µg/mL (≈ 0.492 µM) |  |
| C/C=C/C1=C2[C@@H]3CC(C)(C)CC[C@]3(C(=O)O)CC[C@@]2(C)[C@]2(C)CC[C@H]3C(C)(C)c4n[nH]c(N)c4C[C@]3(C)C2C1 (stereo partly drawn) [Compound 5, (4aS,6aS,6bR,8aR,13aR,15bS)-12-Amino-2,2,6a,6b,9,9,13a-heptamethyl-15-((E)-prop-1-enyl)-2,3,4,4a,5,6,6a,6b,7,8,8a,9,11,13,13a,13b,14,15b-octadecahydro-1H-chryseno[1,2-f]indazole-4a-carboxylic acid] | 1 µg/mL (≈ 1.87 µM) | 0.5 µg/mL (≈ 0.937 µM) |  |
| CC1(C)CC[C@]2(C(=O)O)CC[C@]3(C)C(=C(c4cc[nH]c4)CC4[C@@]5(C)Cc6c(n[nH]c6N)C(C)(C)[C@@H]5CC[C@]43C)[C@@H]2C1 (stereo partly drawn) [Compound 6, (4aS,6aS,6bR,8aR,13aR,15bS)-12-Amino-2,2,6a,6b,9,9,13a-heptamethyl-15-(1H-pyrrol-3-yl)-2,3,4,4a,5,6,6a,6b,7,8,8a,9,11,13,13a,13b,14,15b-octadecahydro-1H-chryseno[1,2-f]indazole-4a-carboxylic acid] | 0.25 µg/mL (≈ 0.447 µM) |  |  |
| CC1(C)CC[C@]2(C(=O)O)CC[C@]3(C)C(=C(c4ccco4)CC4[C@@]5(C)Cc6c(n[nH]c6N)C(C)(C)C5CC[C@]43C)C2C1 (stereo partly drawn) [Compound 7, (4aS,6aS,6bR,13aR)-12-Amino-15-(furan-2-yl)-2,2,6a,6b,9,9,13a-heptamethyl-2,3,4,4a,5,6,6a,6b,7,8,8a,9,11,13,13a,13b,14,15b-octadecahydro-1H-chryseno[1,2-f]indazole-4a-carboxylic acid] | 1 µg/mL (≈ 1.79 µM) | 0.25 µg/mL (≈ 0.447 µM) |  |
| CC1(C)CC[C@]2(C(=O)O)CC[C@]3(C)C(=C(c4c[nH]c5ccccc45)CC4[C@@]5(C)Cc6c(n[nH]c6N)C(C)(C)[C@@H]5CC[C@]43C)[C@@H]2C1 (stereo partly drawn) [Compound 8, (4aS,6aS,6bR,8aR,13aR,15bS)-12-Amino-15-(1H-indol-3-yl)-2,2,6a,6b,9,9,13a-heptamethyl-2,3,4,4a,5,6,6a,6b,7,8,8a,9,11,13,13a,13b,14,15b-octadecahydro-1H-chryseno[1,2-f]indazole-4a-carboxylic acid] | 1 µg/mL (≈ 1.64 µM) | 0.25 µg/mL (≈ 0.411 µM) |  |
| CC1(C)CC[C@]2(C(=O)O)CC[C@]3(C)C(=C(c4c[nH]c(CN5CCOCC5)c4)CC4[C@@]5(C)Cc6c(n[nH]c6N)C(C)(C)[C@@H]5CC[C@]43C)[C@@H]2C1 (stereo partly drawn) [Compound 9, (4aS,6aS,6bR,8aR,13aR,15bS)-12-Amino-2,2,6a,6b,9,9,13a-heptamethyl-15-(5-(morpholinomethyl)-1H-pyrrol-3-yl)-2,3,4,4a,5,6,6a,6b,7,8,8a,9,11,13,13a,13b,14,15b-octadecahydro-1H-chryseno[1,2-f]indazole-4a-carboxylic acid] | 1 µg/mL (≈ 1.52 µM) | 0.5 µg/mL (≈ 0.76 µM) |  |
| CC1(C)CC[C@]2(C(=O)O)CC[C@]3(C)C(=C(c4ccc5c(c4)CCN5)CC4[C@@]5(C)Cc6c(n[nH]c6N)C(C)(C)C5CC[C@]43C)C2C1 (stereo partly drawn) [Compound 11, (4aS,6aS,6bR,13aR)-12-Amino-15-(indolin-5-yl)-2,2,6a,6b,9,9,13a-heptamethyl-2,3,4,4a,5,6,6a,6b,7,8,8a,9,11,13,13a,13b,14,15b-octadecahydro-1H-chryseno[1,2-f]indazole-4a-carboxylic acid] | 0.5 µg/mL (≈ 0.818 µM) | 0.5 µg/mL (≈ 0.818 µM) |  |
| C=CC1=C2[C@@H]3CC(C)(C)CC[C@]3(C(=O)O)CC[C@@]2(C)[C@]2(C)CC[C@H]3C(C)(C)c4n[nH]c(N)c4C[C@]3(C)C2C1 (stereo partly drawn) [Compound 13, (4aS,6aS,6bR,8aR,13aR,15bS)-12-Amino-2,2,6a,6b,9,9,13a-heptamethyl-15-vinyl-2,3,4,4a,5,6,6a,6b,7,8,8a,9,11,13,13a,13b,14,15b-octadecahydro-1H-chryseno[1,2-f]indazole-4a-carboxylic acid] |  |  | IC85 ([1]; Table 3, concentration that reduces the area of the spreading biofilm by >= 85%): 1 µg/mL (≈ 1.92 µM); IC85 ([2]; Table 3, concentration that reduces the area of the spreading biofilm by >= 85%, read-out: P. aeruginosa): 0.5 µg/mL (≈ 0.962 µM) |
| C[C@H]1[C@H](C)CC[C@]2(C(=O)O)CC[C@]3(C)C(=CC[C@@H]4[C@@]5(C)C[C@@H](O)[C@H](O)C(C)(C)[C@@H]5CC[C@]43C)[C@H]12 [Corosolic acid, reference compound] |  |  | IC85 [2, 6]: 4 µg/mL (≈ 8.46 µM) |
| CC1(C)CC[C@]2(C(=O)O)CC[C@]3(C)C(=CC[C@@H]4[C@@]5(C)C[C@@H](O)[C@H](O)C(C)(C)[C@@H]5CC[C@]43C)[C@@H]2C1 [Maslinic acid, reference compound] |  |  | IC85 ([2]; read-out: P. aeruginosa (µg/ml)): 4 µg/mL (≈ 8.46 µM) |
| C[C@H]1[C@H](C)CC[C@]2(C)CC[C@]3(C)C(=CC[C@@H]4[C@@]5(C)CC[C@H](O)C(C)(C)[C@@H]5CC[C@]43C)[C@H]12 [alpha-Amyrin, reference compound] |  |  | P. aeruginosa [2, 5]: > 32 µg/mL |

Source: EP2712863B1, “Novel inhibitors of bacterial biofilms and related methods” (Sequoia Sciences, Inc., priority 2012, dated 2014)
